The results in this text go back to ChEMBL document CHEMBL3091370, “3,5-bis(benzylidene)-4-piperidones and related N-acyl analogs: a novel cluster of antimalarials targeting the liver stage of Plasmodium falciparum” (Bioorg Med Chem, 2013).

Data set [1] relates to Plasmodium falciparum. As to the kind of experiment: Antimalarial activity against drug-resistant Plasmodium falciparum C235 after 72 hrs by SYBR green I staining-based fluorescence assay. In kind it is functional, organism-based. Conditions: C235, 72 h.
Data set [2] is described as follows: Apparent permeability from apical to basolateral side in MDCK cells at 10 uM after 1 hr by LC/MS analysis. In kind it is ADME, cell-based, Canis lupus familiaris. The conditions noted are these: dog.
The nature of data set [3]: Half life in mouse plasma at 1 mM by LC/MS analysis. In kind it is ADME, cell-free.
Data set [4] can be described thus: Apparent permeability from basolateral to apical side in MDCK cells at 10 uM after 1 hr by LC/MS analysis. In kind it is ADME, cell-based, Canis lupus familiaris. The conditions noted are these: dog.
Data set [5] relates to Plasmodium falciparum. The data set can be described thus: Ratio of IC50 for drug-resistant Plasmodium falciparum C235 to IC50 for drug-sensitive Plasmodium falciparum D6. In kind it is functional.
Data set [6] has as its system Plasmodium falciparum. The data set can be described thus: Antimalarial activity against drug-sensitive Plasmodium falciparum D6 after 72 hrs by SYBR green I staining-based fluorescence assay. In kind it is functional, organism-based. Conditions: D6, 72 h.
In a further data set the test system is HepG2. As to the kind of experiment: Cytotoxicity against human HepG2 cells after 48 hrs by MTT assay. In kind it is cell-based. The conditions noted are these: HepG2, 48 h. A general note: Tetrazolium assays rely on reduction of a dye to a coloured formazan, in cell work by metabolically active cells.
In data set [7] the test system is Plasmodium berghei. As to the kind of experiment: Ratio of chloroquine IC50 to compound IC50 for liver stage Plasmodium berghei ANKA sporozoites infected in human HepG2 cells. It is filed as functional.
Data set [8] is described as follows: Efflux ratio of apparent permeability from basolateral to apical side to apical to basolateral side in MDCK cells. It is filed as ADME, cell-based, Canis lupus familiaris. Conditions: dog.
A short description of data set [9]: Half life in human plasma at 1 mM by LC/MS analysis. It is filed as ADME, cell-free.
The test system of data set [10] is Plasmodium berghei. As to the kind of experiment: Ratio of mefloquine IC50 to compound IC50 for liver stage Plasmodium berghei ANKA sporozoites infected in human HepG2 cells. It is filed as functional.
The test system of data set [11] is Plasmodium berghei. The data set can be described thus: Antimalarial activity against liver stage Plasmodium berghei ANKA sporozoites infected in human HepG2 cells after 48 hrs by luciferase reporter gene assay. In kind it is functional, organism-based. The conditions noted are these: HepG2, 48 h. On the technique in general: Reporter assays use an easily measured gene product as a stand-in for the process of interest.

SMILES strings stand for the structures. In brackets after ≈: the same amount, converted by molar mass.

As to `O=C1/C(=C/c2ccccc2)CNC/C1=C\c1ccccc1`, the IC50 with Plasmodium falciparum [1] was 0.162 µg/mL (≈ 0.588 µM); with Plasmodium falciparum [6], 0.139 µg/mL (≈ 0.505 µM); in the data set on HepG2 it was > 2 µg/mL; with Plasmodium berghei [11], 0.0935 µg/mL (≈ 0.34 µM). Besides, in data set [2], the Papp A→B at 1 h, 10 µM came to 5.74 ×10⁻⁶ cm/s. For the same molecule, the half-life worked out at 19.5 min in [3] and 11.8 min in [9]. Also, in data set [4], the Papp B→A at 1 h, 10 µM stood at 0.1 ×10⁻⁶ cm/s. For the same molecule, the results for the “Ratio IC50” value in the data set with Plasmodium falciparum [5], in the data set on Plasmodium berghei [7] and in the data set on Plasmodium berghei [10] were 1.17, >21 and >21, respectively. Further, the efflux ratio in data set [8] stood at 0.02.

In the case of `Cc1ccc(/C=C2\CNC/C(=C\c3ccc(C)cc3)C2=O)cc1`, the IC50 was 0.285 µg/mL (≈ 0.939 µM) with Plasmodium falciparum [1], 0.249 µg/mL (≈ 0.821 µM) with Plasmodium falciparum [6], > 2 µg/mL in the data set with HepG2 and 0.159 µg/mL (≈ 0.524 µM) with Plasmodium berghei [11]. The half-life worked out at 14.6 min in [3] and 17.2 min in [9]. Also, the “Ratio IC50” value in the data set on Plasmodium falciparum [5] is recorded as 1.15.

Take `O=C1/C(=C/c2ccc(Cl)cc2)CNC/C1=C\c1ccc(Cl)cc1`: the IC50 was 0.128 µg/mL (≈ 0.372 µM) with Plasmodium falciparum [1], 0.103 µg/mL (≈ 0.299 µM) in the data set with Plasmodium falciparum [6], > 2 µg/mL in the data set on HepG2 and 0.597 µg/mL (≈ 1.73 µM) with Plasmodium berghei [11]. Moreover, the half-life in data set [3] and in data set [9] was > 60 min throughout. Moreover, the “Ratio IC50” value in the data set with Plasmodium falciparum [5] is on record as 1.24.

In the case of `O=C1/C(=C/c2ccc([N+](=O)[O-])cc2)CNC/C1=C\c1ccc([N+](=O)[O-])cc1`, the IC50 with Plasmodium falciparum [1] was 0.0412 µg/mL (≈ 0.113 µM); in the data set with Plasmodium falciparum [6], 0.0375 µg/mL (≈ 0.103 µM); in the data set with HepG2, > 2 µg/mL; in the data set with Plasmodium berghei [11], 0.356 µg/mL (≈ 0.974 µM). Further, the Papp A→B at 1 h, 10 µM in data set [2] stood at 0.28 ×10⁻⁶ cm/s. Further, the values for the half-life in [3] and in data set [9] were 22.5 min and > 60 min, respectively. Moreover, the “Ratio IC50” value with Plasmodium falciparum [5] is 1.1. Also, the efflux ratio in data set [8] was 0.01.

With `Cc1ccc(/C=C2\CN(C(=O)c3ccc(OCCN4CCOCC4)cc3)C/C(=C\c3ccc(C)cc3)C2=O)cc1.Cl`, the IC50 is > 2 µg/mL with Plasmodium falciparum [1] and 0.846 µg/mL in the data set on Plasmodium falciparum [6]. In the data set with Plasmodium falciparum [5], the “Ratio IC50” value is recorded as >2.36.

Turning to `Cl.O=C1/C(=C/c2ccc(Cl)cc2)CN(C(=O)c2ccc(OCCN3CCCCC3)cc2)C/C1=C\c1ccc(Cl)cc1`, the half-inhibitory concentration (IC50) in the data set on Plasmodium falciparum [1] and in the data set with Plasmodium falciparum [6] was > 2 µg/mL each time. The “Ratio IC50” value in the data set on Plasmodium falciparum [5] was >1.06.

Turning to `CN(C)CCOc1ccc(C(=O)N2C/C(=C\c3ccc(Cl)cc3)C(=O)/C(=C/c3ccc(Cl)cc3)C2)cc1.Cl`, the values for the 50% inhibitory concentration (IC50) in the data set on Plasmodium falciparum [1] and in the data set with Plasmodium falciparum [6] were 0.565 µg/mL and 0.497 µg/mL, respectively. The “Ratio IC50” value in the data set on Plasmodium falciparum [5] was found to be 1.14.

As to `CCN(CC)CCOc1ccc(C(=O)N2C/C(=C\c3ccccc3)C(=O)/C(=C/c3ccccc3)C2)cc1.Cl`, the IC50 in the data set with Plasmodium falciparum [1] was 0.311 µg/mL; in the data set on Plasmodium falciparum [6] it was 0.412 µg/mL; in the data set with HepG2, > 2 µg/mL; in the data set with Plasmodium berghei [11], 0.383 µg/mL. Besides, in the data set with Plasmodium falciparum [5], the “Ratio IC50” value was 0.76.

Regarding `Cl.O=C1/C(=C/c2ccc([N+](=O)[O-])cc2)CN(C(=O)c2ccc(OCCN3CCOCC3)cc2)C/C1=C\c1ccc([N+](=O)[O-])cc1`, the concentration for half-maximal inhibition (IC50) is 0.53 µg/mL with Plasmodium falciparum [1], 0.433 µg/mL in the data set with Plasmodium falciparum [6], > 2 µg/mL in the data set with HepG2 and 0.357 µg/mL with Plasmodium berghei [11]. Also, the “Ratio IC50” value in the data set on Plasmodium falciparum [5] is 1.22.

Turning to `Cl.O=C1/C(=C/c2ccccc2)CN(C(=O)c2ccc(OCCN3CCOCC3)cc2)C/C1=C\c1ccccc1`, the IC50 in the data set with Plasmodium falciparum [1] is > 2 µg/mL; in the data set with Plasmodium falciparum [6], 1.42 µg/mL. For the same molecule, in the data set with Plasmodium falciparum [5], the “Ratio IC50” value is >1.41.

Regarding `CCN(CC)CCOc1ccc(C(=O)N2C/C(=C\c3ccc(C)cc3)C(=O)/C(=C/c3ccc(C)cc3)C2)cc1.Cl`, the concentration for half-maximal inhibition (IC50) with Plasmodium falciparum [1] is 0.555 µg/mL; with Plasmodium falciparum [6], 0.536 µg/mL; with HepG2 it was > 2 µg/mL; in the data set on Plasmodium berghei [11], 0.483 µg/mL. In the data set on Plasmodium falciparum [5], the “Ratio IC50” value is 1.03.

In the case of `Cc1ccc(/C=C2\CN(C(=O)c3ccc(OCCN4CCCCC4)cc3)C/C(=C\c3ccc(C)cc3)C2=O)cc1.Cl`, the IC50 in the data set with Plasmodium falciparum [1] came out at 0.713 µg/mL; in the data set with Plasmodium falciparum [6], 0.682 µg/mL. In addition, in the data set with Plasmodium falciparum [5], the “Ratio IC50” value came to 1.05.

`CCN(CC)CCOc1ccc(C(=O)N2C/C(=C\c3ccc([N+](=O)[O-])cc3)C(=O)/C(=C/c3ccc([N+](=O)[O-])cc3)C2)cc1.Cl`: the IC50 with Plasmodium falciparum [1] is 0.146 µg/mL; in the data set on Plasmodium falciparum [6], 0.202 µg/mL; with HepG2 it was > 2 µg/mL; in the data set on Plasmodium berghei [11] it was 0.186 µg/mL. In addition, the “Ratio IC50” value with Plasmodium falciparum [5] is recorded as 0.72.

Take `CN(C)CCOc1ccc(C(=O)N2C/C(=C\c3ccc([N+](=O)[O-])cc3)C(=O)/C(=C/c3ccc([N+](=O)[O-])cc3)C2)cc1.Cl`: the IC50 in the data set with Plasmodium falciparum [1] was 0.372 µg/mL; in the data set on Plasmodium falciparum [6], 0.424 µg/mL; in the data set with HepG2 it was > 2 µg/mL; with Plasmodium berghei [11], 0.31 µg/mL. Besides, the “Ratio IC50” value with Plasmodium falciparum [5] is recorded as 0.88.

`Cl.O=C1/C(=C/c2ccc([N+](=O)[O-])cc2)CN(C(=O)c2ccc(OCCN3CCCCC3)cc2)C/C1=C\c1ccc([N+](=O)[O-])cc1`: the IC50 in the data set on Plasmodium falciparum [1] is 0.288 µg/mL; with Plasmodium falciparum [6], 0.25 µg/mL; with HepG2, > 2 µg/mL; with Plasmodium berghei [11], 0.165 µg/mL. The “Ratio IC50” value with Plasmodium falciparum [5] was 1.15.

Consider `Cl.O=C1/C(=C/c2ccccc2)CN(C(=O)c2ccc(OCCN3CCCCC3)cc2)C/C1=C\c1ccccc1`, for which the IC50 with Plasmodium falciparum [1] worked out at 0.74 µg/mL; in the data set on Plasmodium falciparum [6], 0.794 µg/mL. In addition, in the data set on Plasmodium falciparum [5], the “Ratio IC50” value amounted to 0.93.

As to `CN(C)CCOc1ccc(C(=O)N2C/C(=C\c3ccccc3)C(=O)/C(=C/c3ccccc3)C2)cc1.Cl`, the half-maximal inhibitory concentration (IC50) with Plasmodium falciparum [1] was > 2 µg/mL; in the data set with Plasmodium falciparum [6], 1.75 µg/mL. Also, the “Ratio IC50” value with Plasmodium falciparum [5] is on record as >1.14.

Regarding `CCN(CC)CCOc1ccc(C(=O)N2C/C(=C\c3ccc(Cl)cc3)C(=O)/C(=C/c3ccc(Cl)cc3)C2)cc1.Cl`, the IC50 in the data set with Plasmodium falciparum [1] and in the data set on Plasmodium falciparum [6] was > 2 µg/mL throughout.

Turning to `Cc1ccc(/C=C2\CN(C(=O)c3ccc(OCCN(C)C)cc3)C/C(=C\c3ccc(C)cc3)C2=O)cc1.Cl`, the IC50 in the data set with Plasmodium falciparum [1], with Plasmodium falciparum [6], with HepG2 and in the data set with Plasmodium berghei [11] was > 2 µg/mL in each case.

On to `O[C@@H](c1cc(C(F)(F)F)nc2c(C(F)(F)F)cccc12)[C@H]1CCCCN1` (relative stereo) [(S,R)-MEFLOQUINE], for which the half-inhibitory concentration (IC50) with Plasmodium falciparum [1] is 0.0167 µg/mL (≈ 0.0441 µM); in the data set on Plasmodium falciparum [6], 0.0066 µg/mL (≈ 0.0174 µM); in the data set with HepG2 it was > 2 µg/mL; in the data set with Plasmodium berghei [11], > 2 µg/mL. The Papp A→B at 1 h, 10 µM in data set [2] came to 0.6 ×10⁻⁶ cm/s. Further, the half-life in [3] and in [9] was > 60 min each time. In data set [4], the Papp B→A at 1 h, 10 µM came to 3.7 ×10⁻⁶ cm/s. The “Ratio IC50” value in the data set with Plasmodium falciparum [5] was 2. Also, the efflux ratio in data set [8] is 6.17.

For `CCN(CC)CCCC(C)Nc1ccnc2cc(Cl)ccc12.O=P(O)(O)O.O=P(O)(O)O` (stereo not drawn) [CHLOROQUINE PHOSPHATE], the half-maximal inhibitory concentration (IC50) with HepG2 and with Plasmodium berghei [11] was > 2 µg/mL throughout.

With `CCN(CC)CCCC(C)Nc1ccnc2cc(Cl)ccc12` (stereo not drawn) [CHLOROQUINE], in data set [2], the Papp A→B at 1 h, 10 µM came out at 13 ×10⁻⁶ cm/s. Moreover, the half-life in data set [3] and in [9] was > 60 min throughout. For the same molecule, the Papp B→A at 1 h, 10 µM in [4] worked out at 14 ×10⁻⁶ cm/s.

In general, IC50 refers to the midpoint of a concentration-inhibition curve. Higher therefore signals a need for much substance. What is called Papp A→B is the apparent permeability from the apical to the basolateral side of a cell layer. What is called half-life is the time needed for the level to fall by half in the phase considered. Read a high half-life as slow decline. The Papp B→A is how fast a substance crosses the layer from the basolateral side. The term efflux ratio denotes a quotient of directional permeabilities that is used to spot active efflux.
